Results reported in ChEMBL document CHEMBL4261615, “Design, synthesis, biological evaluation and cellular imaging of imidazo[4,5-b]pyridine derivatives as potent and selective TAM inhibitors” (Bioorg Med Chem, 2018).
Calls of active or inactive are those of the source. No cut-off for these calls is given here.

Legend:
[1] = biological target: T1, Tyrosine-protein kinase receptor UFO (Homo sapiens, UniProt P30530); assay: Inhibition of recombinant His-tagged human Axl (473 to end residues) cytoplasmic domain expressed in insect system using poly (Glu-Ala-Tyr) peptide as substrate after 5 mins in presence of ADP by fluorescence analysis
T1 sequence (P30530 whole entry): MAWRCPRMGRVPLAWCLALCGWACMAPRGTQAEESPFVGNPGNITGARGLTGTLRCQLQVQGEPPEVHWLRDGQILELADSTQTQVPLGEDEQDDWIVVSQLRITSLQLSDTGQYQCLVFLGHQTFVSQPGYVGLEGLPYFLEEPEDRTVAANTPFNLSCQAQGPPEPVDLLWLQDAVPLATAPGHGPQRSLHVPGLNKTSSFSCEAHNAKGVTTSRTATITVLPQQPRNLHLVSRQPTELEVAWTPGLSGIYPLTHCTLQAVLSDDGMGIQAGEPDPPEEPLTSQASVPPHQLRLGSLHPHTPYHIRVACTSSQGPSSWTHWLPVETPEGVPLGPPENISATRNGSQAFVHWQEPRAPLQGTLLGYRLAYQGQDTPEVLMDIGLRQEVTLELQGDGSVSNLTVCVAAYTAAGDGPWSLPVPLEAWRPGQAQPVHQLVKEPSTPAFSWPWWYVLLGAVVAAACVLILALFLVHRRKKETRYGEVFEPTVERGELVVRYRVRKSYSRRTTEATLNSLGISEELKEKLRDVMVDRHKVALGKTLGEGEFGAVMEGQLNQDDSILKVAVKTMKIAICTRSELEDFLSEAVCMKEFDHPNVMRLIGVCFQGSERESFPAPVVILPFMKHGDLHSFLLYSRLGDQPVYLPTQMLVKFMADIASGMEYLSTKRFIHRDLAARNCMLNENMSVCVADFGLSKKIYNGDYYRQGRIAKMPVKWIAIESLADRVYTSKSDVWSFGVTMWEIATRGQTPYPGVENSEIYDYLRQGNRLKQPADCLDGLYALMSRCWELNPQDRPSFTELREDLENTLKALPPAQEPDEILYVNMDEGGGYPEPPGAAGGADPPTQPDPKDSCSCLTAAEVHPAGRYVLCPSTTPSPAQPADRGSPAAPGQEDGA

[2] = biological target: T2, Tyrosine-protein kinase Mer (Homo sapiens, UniProt Q12866); assay: Inhibition of recombinant GST-tagged human Mer (578 to 872 residues) cytoplasmic domain expressed in Baculovirus system using poly (Glu-Ala-Tyr) peptide as substrate after 5 mins in presence of ADP by fluorescence analysis
T2 sequence (Q12866 whole entry): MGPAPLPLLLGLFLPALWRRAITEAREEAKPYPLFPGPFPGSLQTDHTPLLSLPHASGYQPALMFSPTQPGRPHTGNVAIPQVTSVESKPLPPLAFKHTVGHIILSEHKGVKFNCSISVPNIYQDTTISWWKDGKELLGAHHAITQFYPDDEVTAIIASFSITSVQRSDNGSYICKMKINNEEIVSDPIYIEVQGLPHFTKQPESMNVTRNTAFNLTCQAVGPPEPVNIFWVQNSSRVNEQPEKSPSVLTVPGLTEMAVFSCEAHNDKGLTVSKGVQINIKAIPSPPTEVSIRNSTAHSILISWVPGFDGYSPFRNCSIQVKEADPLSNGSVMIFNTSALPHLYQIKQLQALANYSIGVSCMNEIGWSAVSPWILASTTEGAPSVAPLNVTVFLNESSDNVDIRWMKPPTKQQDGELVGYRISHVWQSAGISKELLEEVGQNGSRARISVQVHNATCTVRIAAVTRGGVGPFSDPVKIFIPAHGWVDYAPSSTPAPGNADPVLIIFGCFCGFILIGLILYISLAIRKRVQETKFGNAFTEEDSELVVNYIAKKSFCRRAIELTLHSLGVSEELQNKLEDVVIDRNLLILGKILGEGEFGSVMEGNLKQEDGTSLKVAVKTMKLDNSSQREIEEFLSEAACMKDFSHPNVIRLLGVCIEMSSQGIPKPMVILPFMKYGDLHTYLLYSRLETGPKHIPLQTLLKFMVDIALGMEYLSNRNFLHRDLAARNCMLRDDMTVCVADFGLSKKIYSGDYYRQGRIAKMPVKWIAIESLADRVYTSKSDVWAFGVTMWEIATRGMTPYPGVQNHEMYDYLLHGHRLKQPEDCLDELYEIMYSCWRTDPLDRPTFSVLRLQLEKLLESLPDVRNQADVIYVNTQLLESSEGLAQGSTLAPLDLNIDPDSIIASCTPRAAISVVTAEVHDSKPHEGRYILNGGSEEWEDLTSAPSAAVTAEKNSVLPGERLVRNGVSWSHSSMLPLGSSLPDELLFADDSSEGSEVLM

[3] = biological target: T3, Tyrosine-protein kinase Mer (Homo sapiens) (UniProt Q12866); assay: Inhibition of recombinant GST-tagged human Mer (578 to 872 residues) cytoplasmic domain expressed in Baculovirus system using poly (Glu-Ala-Tyr) peptide as substrate after 1.5 hrs by ELISA
T3 sequence (whole entry): T2 sequence (Q12866 whole entry)

[4] = biological target: Tyrosine-protein kinase ABL1 (Homo sapiens) (UniProt P00519); assay: Binding affinity to human wild type ABL1 (229 to 512 residues) expressed in mammalian expression system assessed as fraction of unbound kinase to substrate at 0.1 uM after 1 hr by KinomeScan assay
Sequence of Tyrosine-protein kinase ABL1 (Homo sapiens) (P00519 whole entry, the tested form may be a part): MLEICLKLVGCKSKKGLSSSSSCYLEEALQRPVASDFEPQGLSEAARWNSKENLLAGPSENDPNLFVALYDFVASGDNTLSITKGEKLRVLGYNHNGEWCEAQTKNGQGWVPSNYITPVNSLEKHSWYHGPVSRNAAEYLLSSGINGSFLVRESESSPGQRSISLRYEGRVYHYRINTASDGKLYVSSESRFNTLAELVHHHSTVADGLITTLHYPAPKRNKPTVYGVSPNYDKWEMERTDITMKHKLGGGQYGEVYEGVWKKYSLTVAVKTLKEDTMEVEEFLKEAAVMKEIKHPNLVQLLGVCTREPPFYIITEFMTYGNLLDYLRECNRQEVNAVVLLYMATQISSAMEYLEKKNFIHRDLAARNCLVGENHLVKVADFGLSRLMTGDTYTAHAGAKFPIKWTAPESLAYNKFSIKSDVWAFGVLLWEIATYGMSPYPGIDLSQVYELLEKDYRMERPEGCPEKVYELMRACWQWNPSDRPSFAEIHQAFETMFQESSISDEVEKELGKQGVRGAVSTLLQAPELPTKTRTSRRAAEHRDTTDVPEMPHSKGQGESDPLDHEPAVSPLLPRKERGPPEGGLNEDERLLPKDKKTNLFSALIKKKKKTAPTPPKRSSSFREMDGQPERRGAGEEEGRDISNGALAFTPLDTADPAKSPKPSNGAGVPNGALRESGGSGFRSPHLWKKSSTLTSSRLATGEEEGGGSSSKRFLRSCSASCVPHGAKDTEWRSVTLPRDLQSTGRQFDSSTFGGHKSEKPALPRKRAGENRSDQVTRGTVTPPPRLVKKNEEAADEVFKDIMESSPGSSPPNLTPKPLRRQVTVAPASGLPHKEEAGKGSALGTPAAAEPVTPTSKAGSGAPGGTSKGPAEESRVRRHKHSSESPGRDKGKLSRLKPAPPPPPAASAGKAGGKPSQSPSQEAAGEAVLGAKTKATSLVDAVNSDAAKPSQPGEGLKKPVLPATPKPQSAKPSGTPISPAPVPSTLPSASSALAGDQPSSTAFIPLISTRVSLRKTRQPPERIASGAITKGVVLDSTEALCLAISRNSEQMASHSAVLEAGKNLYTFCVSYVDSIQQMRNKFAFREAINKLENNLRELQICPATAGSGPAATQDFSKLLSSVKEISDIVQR

[5] = biological target: T4, Aurora kinase A (Homo sapiens) (UniProt O14965); assay: Binding affinity to wild-type human partial length AURKA (E122 to K401 residues) expressed in mammalian expression system assessed as fraction of unbound kinase to substrate at 1 uM after 1 hr by KinomeScan assay
T4 sequence (whole entry): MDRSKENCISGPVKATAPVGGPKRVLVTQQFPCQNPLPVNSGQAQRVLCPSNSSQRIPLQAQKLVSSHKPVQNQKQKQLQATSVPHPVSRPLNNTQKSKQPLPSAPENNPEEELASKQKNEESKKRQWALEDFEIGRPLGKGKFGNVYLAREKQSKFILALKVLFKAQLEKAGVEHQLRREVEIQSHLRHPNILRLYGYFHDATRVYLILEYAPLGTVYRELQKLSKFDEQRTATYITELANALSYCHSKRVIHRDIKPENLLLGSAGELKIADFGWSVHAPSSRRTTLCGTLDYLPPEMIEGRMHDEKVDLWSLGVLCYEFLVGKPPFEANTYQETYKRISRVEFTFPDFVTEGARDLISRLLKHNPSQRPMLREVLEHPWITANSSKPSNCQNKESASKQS

[6] = biological target: Cyclin-dependent kinase 2 (Homo sapiens) (UniProt P24941); assay: Binding affinity to wild-type human full length CDK2 (M1 to L298 residues) expressed in bacterial expression system assessed as fraction of unbound kinase to substrate at 1 uM after 1 hr by KinomeScan assay
[7] = biological target: Tyrosine-protein kinase receptor UFO (Homo sapiens) (UniProt P30530); assay: Binding affinity to human AXL (R497 to Y821 residues) expressed in bacterial expression system assessed as fraction of unbound kinase to substrate at 0.1 uM after 1 hr by KinomeScan assay
[8] = tested on: A549; assay: Antiproliferative activity against human A549 cells after 72 hrs by CellTiter-Glo assay; format: functional, cell-based

`O=C(Nc1ccc(Oc2ccnc3[nH]cnc23)c(F)c1)c1cccn(-c2ccc(F)cc2)c1=O` was tested, and the IC50 [1] was 0.77 nM, the IC50 [2] was 90 nM and the inhibition [3] was “Active”. The Activity [4] was 2%, the Activity [5] was 2% and the Activity [6] was 0%. For the same compound, the Activity [7] was 78% and the Activity [8] was “inactive”.

`CC(C)c1nc2c(Oc3ccc(NC(=O)c4cccn(-c5ccc(F)cc5)c4=O)cc3F)ccnc2[nH]1` was tested, and the IC50 [1] was 70 nM, the IC50 [2] was 40 nM and the inhibition [3] was “Active”. It also gave an Activity [4] of 1%, an Activity [5] of 2% and an Activity [6] of 95.5%. For the same compound, the Activity [7] was 61% and the Activity [8] was “inactive”.

With `O=C(Nc1ccc(Oc2c(Br)cnc3[nH]cnc23)c(F)c1)c1cccn(-c2ccc(F)cc2)c1=O` the IC50 [1] was 2000 nM, the IC50 [2] was 9 nM and the inhibition [3] was “inactive”. It also gave an Activity [4] of 0%, an Activity [5] of 9% and an Activity [6] of 0%. It also gave an Activity [7] of 4%.

For `Cc1cnc2[nH]cnc2c1Oc1ccc(NC(=O)c2cccn(-c3ccc(F)cc3)c2=O)cc1F`, the IC50 [1] was over 100000 nM, the IC50 [2] was over 100000 nM and the inhibition [3] was “inactive”. The Activity [4] was 1%, the Activity [5] was 6% and the Activity [6] was 0%. For the same compound, the Activity [7] was 22% and the Activity [8] was “inactive”.
